Measured values reported in patent publication US8999957B2, “Heterocyclic compounds as ERK inhibitors” (Merck Sharp & Dohme Corp., priority 2010, dated 2015).

Each compound was assayed against fully phosphorylated, mouse aERK2 enzyme (Mus musculus (Mouse), UniProt P63085) (assay: Active ERK2 (aERK) IMAP-FP assay, condition 2). Conditions: aERK assay condition 2, 30 uM ATP; read-out: aERK IC50.
Type: biochemical
Outline: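 Phosphorylation by fully phosphorylated mouse ERK2 ran 40-45 min, then quenched with IMAP beads (1:1000) in binding buffer; fluorescence polarization read after 30 min binding equilibration.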

fully phosphorylated, mouse aERK2 enzyme, sequence (P63085 whole entry): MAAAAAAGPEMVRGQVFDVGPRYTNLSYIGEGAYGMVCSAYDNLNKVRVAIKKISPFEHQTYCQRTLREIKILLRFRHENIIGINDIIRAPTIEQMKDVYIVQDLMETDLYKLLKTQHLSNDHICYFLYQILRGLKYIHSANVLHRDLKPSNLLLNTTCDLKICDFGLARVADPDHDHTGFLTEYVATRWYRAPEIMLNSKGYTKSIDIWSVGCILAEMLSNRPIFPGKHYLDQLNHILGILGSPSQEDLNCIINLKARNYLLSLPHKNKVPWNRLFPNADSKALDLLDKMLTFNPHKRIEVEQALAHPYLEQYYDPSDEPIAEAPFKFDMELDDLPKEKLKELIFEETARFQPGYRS

| IC50 | Compound |
| --- | --- |
| 54.8 nM | COc1cccc(F)c1CN1C[C@H](NC(=O)c2ccc3[nH]nc(-c4ccnc(C)c4)c3c2)CC[C@H]1C(=O)Nc1ccc(C)cc1C [N-[(3R,6S)-6-[(2,4-dimethylphenyl)carbamoyl]-1-(2-fluoro-6-methoxybenzyl)piperidin-3-yl]-3-(2-methylpyridin-4-yl)-1H-indazole-5-carboxamide] |

Same assay, conditions: active ERK2; read-out: aErk2 Ic50

| IC50 | Compound |
| --- | --- |
| 48 nM | COc1cccc(F)c1CN1C[C@H](NC(=O)c2ccc3[nH]nc(-c4ccc5nc(C)sc5c4)c3c2)CC[C@H]1C(=O)N(C)C [N-[(3R,6S)-6-(dimethylcarbamoyl)-1-(2-fluoro-6-methoxybenzyl)piperidin-3-yl]-3-(2-methyl-1,3-benzothiazol-6-yl)-1H-indazole-5-carboxamide] |
| 37.8 nM | COc1cccc(F)c1CN1C[C@H](NC(=O)c2ccc3[nH]nc(-c4ccnc(C)c4)c3c2)CC[C@H]1C(=O)N(C)C [N-[(3R,6S)-6-(dimethylcarbamoyl)-1-(2-fluoro-6-methoxybenzyl)piperidin-3-yl]-3-(2-methylpyridin-4-yl)-1H-indazole-5-carboxamide] |
| 137 nM | COc1cccc(F)c1CN1C[C@H](NC(=O)c2ccc3[nH]nc(-c4ccnnc4)c3c2)CC[C@H]1C(=O)N(C)C [N-[(3R,6S)-6-(dimethylcarbamoyl)-1-(2-fluoro-6-methoxybenzyl)piperidin-3-yl]-3-pyridazin-4-yl-1H-indazole-5-carboxamide] |
| 18.2 nM | COc1cccc(F)c1CN1C[C@H](NC(=O)c2ccc3[nH]nc(-c4ccncc4)c3c2)CC[C@H]1C(=O)N(C)C [N-[(3R,6S)-6-(dimethylcarbamoyl)-1-(2-fluoro-6-methoxybenzyl)piperidin-3-yl]-3-pyridin-4-yl-1H-indazole-5-carboxamide] |
| 39.4 nM | Cc1cc(-c2n[nH]c3ccc(C(=O)N[C@@H]4CC[C@@H](C(=O)N(C)C)N(Cc5ccccc5F)C4)cc23)ccn1 [N-[(3R,6S)-6-(dimethylcarbamoyl)-1-(2-fluorobenzyl)piperidin-3-yl]-3-(2-methylpyridin-4-yl)-1H-indazole-5-carboxamide] |
| 131 nM | Cc1cc(-c2n[nH]c3ccc(C(=O)N[C@@H]4CC[C@@H](C(=O)N(C)C)N(CCc5ccccc5)C4)cc23)ccn1 [N-[(3R,6S)-6-(dimethylcarbamoyl)-1-(2-phenylethyl)piperidin-3-yl]-3-(2-methylpyridin-4-yl)-1H-indazole-5-carboxamide] |
| 14.4 nM | Cc1cc(-c2n[nH]c3ccc(C(=O)N[C@@H]4CC[C@@H](C(=O)N(C)C)N(Cc5cccs5)C4)cc23)ccn1 [N-[(3R,6S)-6-(dimethylcarbamoyl)-1-(thiophen-2-ylmethyl)piperidin-3-yl]-3-(2-methylpyridin-4-yl)-1H-indazole-5-carboxamide] |
| 141 nM | CCCN(CCC)C(=O)[C@@H]1CC[C@@H](NC(=O)c2ccc3[nH]nc(-c4ccnc(C)c4)c3c2)CN1Cc1c(F)cccc1OC [N-[(3R,6S)-6-(dipropylcarbamoyl)-1-(2-fluoro-6-methoxybenzyl)piperidin-3-yl]-3-(2-methylpyridin-4-yl)-1H-indazole-5-carboxamide] |
| 12.2 nM | COc1cccc(F)c1CN1C[C@H](NC(=O)c2ccc3[nH]nc(-c4ccnc(C)c4)c3c2)CC[C@H]1C(=O)NN(C)C [N-[(3R,6S)-6-[(2,2-dimethylhydrazino)-carbonyl]-1-(2-fluoro-6-methoxybenzyl)-piperidin-3-yl]-3-(2-methylpyridin-4-yl)-1H-indazole-5-carboxamide] |
| 9 nM | COc1cccc(F)c1CN1C[C@H](NC(=O)c2ccc3[nH]nc(-c4ccnc(C)c4)c3c2)CC[C@H]1C(=O)NCCF [N-[(3R,6S)-6-[(2-fluoroethyl)carbamoyl]-1-(2-fluoro-6-methoxybenzyl)piperidin-3-yl]-3-(2-methylpyridin-4-yl)-1H-indazole-5-carboxamide] |

| Compound | IC50 |
| --- | --- |
| COc1cccc(F)c1CN1C[C@H](NC(=O)c2ccc3[nH]nc(-c4ccnc(C)c4)c3c2)CC[C@H]1C(=O)NOC(C)(C)C [N-[(3R,6S)-6-(tert-butoxycarbamoyl)-1-(2-fluoro-6-methoxybenzyl)piperidin-3-yl]-3-(2-methylpyridin-4-yl)-1H-indazole-5-carboxamide] | 26.2 nM |
